Measured values taken from ChEMBL document CHEMBL2440076, “New triarylpyrazoles as broad-spectrum anticancer agents: design, synthesis, and biological evaluation” (Eur J Med Chem, 2013).

Key:
Format in all cases: functional
[1] = Growth inhibition of human NCI-ADR-RES cells assessed as cell growth at 3X10'-8 M after 48 hrs by sulforhodamine B assay; conditions: read-out: Activity
SNB-19 [2] = assay: Growth inhibition of human SNB19 cells assessed as cell growth at 3X10'-9 M after 48 hrs by sulforhodamine B assay; conditions: SNB-19, 48 h, read-out: Activity
MOLT-4 = assay: Growth inhibition of human MOLT4 cells assessed as cell growth at 3X10'-5 M after 48 hrs by sulforhodamine B assay; conditions: MOLT-4, 48 h, read-out: Activity
DU-145 [3] = assay: Growth inhibition of human DU145 cells assessed as cell growth at 3X10'-9 M after 48 hrs by sulforhodamine B assay; conditions: DU-145, 48 h, read-out: Activity
DU-145 [4] = assay: Growth inhibition of human DU145 cells assessed as cell growth at 3X10'-7 M after 48 hrs by sulforhodamine B assay; conditions: DU-145, 48 h, read-out: Activity
SF-295 = assay: Growth inhibition of human SF295 cells assessed as cell growth at 3X10'-8 M after 48 hrs by sulforhodamine B assay; conditions: SF-295, 48 h, read-out: Activity
OVCAR-5 = assay: Growth inhibition of human OVCAR5 cells assessed as cell growth at 3X10'-8 M after 48 hrs by sulforhodamine B assay; conditions: OVCAR-5, 48 h, read-out: Activity
[5] = Growth inhibition of human Hs 578T cells assessed as cell growth at 3X10'-8 M after 48 hrs by sulforhodamine B assay; conditions: read-out: Activity
786-0 = assay: Growth inhibition of human 786-0 cells assessed as cell growth at 3X10'-8 M after 48 hrs by sulforhodamine B assay; conditions: 786-0, 48 h, read-out: Activity
T47D = assay: Growth inhibition of human T47D cells assessed as cell growth at 3X10'-9 M after 48 hrs by sulforhodamine B assay; conditions: read-out: Activity
MDA-MB-435 [6] = assay: Growth inhibition of human MDA-MB-435 cells assessed as cell growth at 3X10'-8 M after 48 hrs by sulforhodamine B assay; conditions: MDA-MB-435, 48 h, read-out: Activity
MDA-MB-435 [7] = assay: Growth inhibition of human MDA-MB-435 cells assessed as cell growth at 3X10'-9 M after 48 hrs by sulforhodamine B assay; conditions: MDA-MB-435, 48 h, read-out: Activity
SK-MEL-28 = assay: Growth inhibition of human SK-MEL-28 cells assessed as cell growth at 3X10'-8 M after 48 hrs by sulforhodamine B assay; conditions: SK-MEL-28, 48 h, read-out: Activity
SN12C = assay: Growth inhibition of human SN12C cells assessed as cell growth at 3X10'-8 M after 48 hrs by sulforhodamine B assay; conditions: read-out: Activity
MDA-MB-231 = assay: Growth inhibition of human MDA-MB-231 cells assessed as cell growth at 3X10'-8 M after 48 hrs by sulforhodamine B assay; conditions: MDA-MB-231, 48 h, read-out: Activity
M14 = assay: Growth inhibition of human M14 cells assessed as cell growth at 3X10'-6 M after 48 hrs by sulforhodamine B assay; conditions: M14, 48 h, read-out: Activity
MDA-MB-435 [8] = assay: Growth inhibition of human MDA-MB-435 cells assessed as cell growth at 3X10'-7 M after 48 hrs by sulforhodamine B assay; conditions: MDA-MB-435, 48 h, read-out: Activity
CCRF-CEM = assay: Growth inhibition of human CCRF-CEM cells assessed as cell growth at 3X10'-5 M after 48 hrs by sulforhodamine B assay; conditions: read-out: Activity
SF-268 = assay: Growth inhibition of human SF268 cells assessed as cell growth at 3X10'-8 M after 48 hrs by sulforhodamine B assay; conditions: SF-268, 48 h, read-out: Activity
SK-OV-3 [9] = assay: Growth inhibition of human SKOV3 cells assessed as cell growth at 3X10'-6 M after 48 hrs by sulforhodamine B assay; conditions: SK-OV-3, 48 h, read-out: Activity
BT-549 = assay: Growth inhibition of human BT549 cells assessed as cell growth at 3X10'-6 M after 48 hrs by sulforhodamine B assay; conditions: BT-549, 48 h, read-out: Activity
U-251 = assay: Growth inhibition of human U251 cells assessed as cell growth at 3X10'-8 M after 48 hrs by sulforhodamine B assay; conditions: U-251, 48 h, read-out: Activity
SK-OV-3 [10] = assay: Growth inhibition of human SKOV3 cells assessed as cell growth at 3X10'-9 M after 48 hrs by sulforhodamine B assay; conditions: SK-OV-3, 48 h, read-out: Activity
SK-OV-3 [11] = assay: Growth inhibition of human SKOV3 cells assessed as cell growth at 3X10'-5 M after 48 hrs by sulforhodamine B assay; conditions: SK-OV-3, 48 h, read-out: Activity
[12] = Growth inhibition of human Hs 578T cells assessed as cell growth at 3X10'-9 M after 48 hrs by sulforhodamine B assay; conditions: read-out: Activity
HCT-116 = assay: Growth inhibition of human HCT116 cells assessed as cell growth at 3X10'-6 M after 48 hrs by sulforhodamine B assay; conditions: HCT-116, 48 h, read-out: Activity
[13] = Growth inhibition of human NCI-ADR-RES cells assessed as cell growth at 3X10'-9 M after 48 hrs by sulforhodamine B assay; conditions: read-out: Activity
HT-29 = assay: Growth inhibition of human HT-29 cells assessed as cell growth at 3X10'-6 M after 48 hrs by sulforhodamine B assay; conditions: HT-29, 48 h, read-out: Activity
NCI-H460 [14] = assay: Growth inhibition of human NCI-H460 cells assessed as cell growth at 3X10'-9 M after 48 hrs by sulforhodamine B assay; conditions: NCI-H460, 48 h, read-out: Activity
HCT-15 = assay: Growth inhibition of human HCT15 cells assessed as cell growth at 3X10'-9 M after 48 hrs by sulforhodamine B assay; conditions: HCT-15, 48 h, read-out: Activity
HOP-62 = assay: Growth inhibition of human HOP62 cells assessed as cell growth at 3X10'-6 M after 48 hrs by sulforhodamine B assay; conditions: HOP-62, 48 h, read-out: Activity
UO-31 = assay: Growth inhibition of human UO31 cells assessed as cell growth at 3X10'-8 M after 48 hrs by sulforhodamine B assay; conditions: UO-31, 48 h, read-out: Activity
RPMI-8226 = assay: Growth inhibition of human RPMI8226 cells assessed as cell growth at 3X10'-6 M after 48 hrs by sulforhodamine B assay; conditions: RPMI-8226, 48 h, read-out: Activity
HOP-92 = assay: Growth inhibition of human HOP92 cells assessed as cell growth at 3X10'-9 M after 48 hrs by sulforhodamine B assay; conditions: HOP-92, 48 h, read-out: Activity
NCI-H460 [15] = assay: Growth inhibition of human NCI-H460 cells assessed as cell growth at 3X10'-8 M after 48 hrs by sulforhodamine B assay; conditions: NCI-H460, 48 h, read-out: Activity
OVCAR-3 = assay: Growth inhibition of human OVCAR3 cells assessed as cell growth at 3X10'-8 M after 48 hrs by sulforhodamine B assay; conditions: OVCAR-3, 48 h, read-out: Activity
SNB-19 [16] = assay: Growth inhibition of human SNB19 cells assessed as cell growth at 3X10'-7 M after 48 hrs by sulforhodamine B assay; conditions: SNB-19, 48 h, read-out: Activity

COc1cc(-c2nn(-c3cccc(NC(=O)c4ccc(Cl)c(C(F)(F)F)c4)c3)cc2-c2ccncc2)ccc1Cl
growth at 0.03 µM [1]: 94%
growth at 0.003 µM (SNB-19 [2]): 95%
growth at 30 µM (MOLT-4): 24%
growth at 0.003 µM (DU-145 [3]): 100%
growth at 0.3 µM (DU-145 [4]): 98%
growth at 0.03 µM (SF-295): 94%
growth at 0.03 µM (OVCAR-5): 96%
growth at 0.03 µM [5]: 91%
growth at 0.03 µM (786-0): 96%
growth at 0.003 µM (T47D): 95%
growth at 0.03 µM (MDA-MB-435 [6]): 97%
growth at 0.003 µM (MDA-MB-435 [7]): 95%
growth at 0.03 µM (SK-MEL-28): 100%
growth at 0.03 µM (SN12C): 99%
growth at 0.03 µM (MDA-MB-231): 97%
growth at 3 µM (M14): 47%
growth at 0.3 µM (MDA-MB-435 [8]): 87%
growth at 30 µM (CCRF-CEM): 4%
growth at 0.03 µM (SF-268): 94%
growth at 3 µM (SK-OV-3 [9]): 71%
growth at 3 µM (BT-549): 62%
growth at 0.03 µM (U-251): 99%
growth at 0.003 µM (SK-OV-3 [10]): 100%
growth at 30 µM (SK-OV-3 [11]): 24%
growth at 0.003 µM [12]: 93%
growth at 3 µM (HCT-116): 44%
growth at 0.003 µM [13]: 97%
growth at 3 µM (HT-29): 51%
growth at 0.003 µM (NCI-H460 [14]): 103%
growth at 0.003 µM (HCT-15): 99%
growth at 3 µM (HOP-62): 73%
growth at 0.03 µM (UO-31): 80%
growth at 3 µM (RPMI-8226): 31%
growth at 0.003 µM (HOP-92): 94%
growth at 0.03 µM (NCI-H460 [15]): 104%
growth at 0.03 µM (OVCAR-3): 104%
growth at 0.3 µM (SNB-19 [16]): 97%

O=C(Nc1cccc(-n2cc(-c3ccncc3)c(-c3ccc(Cl)c(O)c3)n2)c1)Nc1ccc(Cl)c(C(F)(F)F)c1
growth at 0.03 µM [1]: 102%
growth at 0.003 µM (SNB-19 [2]): 96%
growth at 30 µM (MOLT-4): -32%
growth at 0.003 µM (DU-145 [3]): 101%
growth at 0.3 µM (DU-145 [4]): 97%
growth at 0.03 µM (SF-295): 92%
growth at 0.03 µM (OVCAR-5): 85%
growth at 0.03 µM [5]: 88%
growth at 0.03 µM (786-0): 102%
growth at 0.003 µM (T47D): 102%
growth at 0.03 µM (MDA-MB-435 [6]): 94%
growth at 0.003 µM (MDA-MB-435 [7]): 97%
growth at 0.03 µM (SK-MEL-28): 97%
growth at 0.03 µM (SN12C): 94%
growth at 0.03 µM (MDA-MB-231): 96%
growth at 3 µM (M14): -7%
growth at 0.3 µM (MDA-MB-435 [8]): 86%
growth at 30 µM (CCRF-CEM): -14%
growth at 0.03 µM (SF-268): 103%
growth at 3 µM (SK-OV-3 [9]): 22%
growth at 3 µM (BT-549): 12%
growth at 0.03 µM (U-251): 96%
growth at 0.003 µM (SK-OV-3 [10]): 102%
growth at 30 µM (SK-OV-3 [11]): -11%
growth at 0.003 µM [12]: 91%
growth at 3 µM (HCT-116): 4%
growth at 0.003 µM [13]: 102%
growth at 3 µM (HT-29): 21%
growth at 0.003 µM (NCI-H460 [14]): 103%
growth at 0.003 µM (HCT-15): 98%
growth at 3 µM (HOP-62): 11%
growth at 0.03 µM (UO-31): 95%
growth at 3 µM (RPMI-8226): -20%
growth at 0.003 µM (HOP-92): 79%
growth at 0.03 µM (NCI-H460 [15]): 100%
growth at 0.03 µM (OVCAR-3): 113%
growth at 0.3 µM (SNB-19 [16]): 98%
